The record followed here is PubChem BioAssay AID1949 (Southern Research Institute, 2009).

Molecules are shown by their SMILES. ≈ marks a conversion by molar mass, not a printed value. Results filed as inconclusive are left out. Calls of active or inactive are those of the source. No rule for the calls is given here.

The IC50 is the concentration at which inhibition is half-maximal.

The subject of the assay is M. tuberculosis H37Rv growth inhibition. Briefly: Mycobacterium tuberculosis H37Rv growth inhibition, cell based, confirmatory dose response (AID 1949).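 Also: bacteria grown 7 days with compound before Alamar blue readout.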
As for `OC(COCCC12CC3CC(CC(C3)C1)C2)CN1CCc2ccccc2C1` (stereo not given), the IC50 is 3.49 µg/mL (≈ 9.44 µM).
To `Cc1ccc(OCCCCNCCc2ccccc2)c(C)c1` belongs 9.13 µg/mL (≈ 30.7 µM); to `CSc1ccc(/C=C/c2nc(-c3ccccc3O)n[nH]2)cc1`, 4.5 µg/mL (≈ 14.5 µM); to `Nc1cc(Oc2ccc(O)c(N)c2)ccc1O`, 6.13 µg/mL (≈ 26.4 µM).
On to `CCc1nccn1S(=O)(=O)c1ccccc1[N+](=O)[O-]`, for which the IC50 is > 50 µg/mL (inactive).
To `COC(=O)COc1ccc2c(=O)c(-c3ccccc3Cl)c(C)oc2c1` belongs 0.42 µg/mL (≈ 1.17 µM).
To `O=C(Nc1ccc2c(c1)OCCO2)NC12CC3CC(CC(C3)C1)C2` belongs 4.52 µg/mL (≈ 13.8 µM); to `COc1ccc2nc(/C(C#N)=C\c3cccn3-c3ccccc3F)[nH]c2c1`, 4.8 µg/mL (≈ 13.4 µM); to `COC(=O)c1ccc(OCC(O)CN2CCN(c3cc(Cl)ccc3C)CC2)cc1` (stereo not given), 5.13 µg/mL (≈ 12.2 µM).
The figure for `CCCc1ccc(OC(=O)c2ccc(OC)c(OC)c2)cc1` is 2.37 µg/mL (≈ 7.89 µM); for `O=C1C(Cl)=C(c2ccc(Cl)cc2)C(=O)N1c1ccc(Cl)cc1` it is > 50 µg/mL (inactive).
Turning to `COc1cccc(OC)c1C(=O)Nc1ccc(Cl)c(-c2nc3ccccc3s2)c1`, the IC50 is 1.49 µg/mL (≈ 3.51 µM).
On to `Cc1ccc(C(=O)Oc2ccc(Cl)c3cccnc23)cc1[N+](=O)[O-]`, for which the IC50 is 0.94 µg/mL (≈ 2.74 µM).
To `COc1ccc(CCCC(=O)Nc2ccc(Cl)c(Cl)c2)c(C)c1` belongs 8.81 µg/mL (≈ 25 µM); to `O=C(CCNc1ccc(Cc2ccncc2)cc1)c1ccc([N+](=O)[O-])cc1`, 4.37 µg/mL (≈ 12.1 µM).
The figure for `COc1ccc(-c2cc(C(F)F)n3ncc(C(=O)N4CCN(c5ccccc5)CC4)c3n2)cc1` is > 50 µg/mL (inactive); for `Cc1ccccc1NC(=O)c1ccccc1NC(=S)NC(=O)c1cccnc1` it is 1.3 µg/mL (≈ 3.33 µM); for `COc1ccc(C(=O)CCN2CCN(c3ccccc3F)CC2)cc1` it is 5.64 µg/mL (≈ 16.5 µM).
To `CN(C)c1ccc(NC(=O)c2ccncc2)cc1` belongs 2.89 µg/mL (≈ 12 µM); to `CCC(=O)NC(=S)Nc1ccc(N2CCCCC2)cc1`, 3.52 µg/mL (≈ 12.1 µM).
For the compound `O=C(CC(O)(C(F)(F)F)C(F)(F)F)Nc1ccc(Oc2ccccc2)cc1`, the IC50 was 7.49 µg/mL (≈ 19 µM).
For the compound `Cc1ccc(Cl)cc1N(CC(=O)Nc1ccc(I)cc1)S(C)(=O)=O`, the IC50 is 4.66 µg/mL (≈ 9.73 µM).
Turning to `Cc1cc(OCC(O)CNC(C)c2ccccc2)ccc1C(C)C` (stereo not given), the IC50 was 5.52 µg/mL (≈ 16.9 µM).
In the case of `O=C1OCCC1Sc1cccc2cccnc12` (stereo not given), the IC50 was 7.31 µg/mL (≈ 29.8 µM).
The figure for `CCn1c2ccc(F)cc2c2nc3ccccc3nc21` is 6.92 µg/mL (≈ 26.1 µM); for `O=C(CCN1CCC(c2ccccc2)C1)c1cccs1` (stereo not given) it is 11.5 µg/mL (≈ 40.2 µM).
To `CCOC(=O)Cc1nc2cc(Cl)ccc2o1` belongs 10.4 µg/mL (≈ 43.5 µM); to `CCOc1ccccc1NC(=O)COc1ccc(C(C)C)cc1`, 5.01 µg/mL (≈ 16 µM); to `CCOC(=O)C1=C(c2ccc(C)cc2)C(=O)c2ccccc2C1=O`, 3.03 µg/mL (≈ 9.46 µM).
The figure for `O=C(CSc1nnc(-c2ccccc2)o1)N1CCc2ccccc2C1` is 9.27 µg/mL (≈ 26.4 µM); for `CCC(=O)Nc1ccc2oc(-c3c(F)c(F)c(F)c(F)c3F)nc2c1` it is 10.5 µg/mL (≈ 29.4 µM); for `O=c1[nH]c(/C=C/c2cccc3ccccc23)nc(O)c1[N+](=O)[O-]` it is 2.8 µg/mL (≈ 9.05 µM).
Regarding `Cc1cccc(Nc2nc(-c3ccccn3)cs2)n1`, the IC50 was under 0.1 µg/mL.
The figure for `Cc1cc(OC(=O)C2CC2)c2c3c(c(=O)oc2c1)CCCC3` is 1.44 µg/mL (≈ 4.83 µM).
Regarding `CCCC(=O)N1CCN(c2ccc(NC(=O)c3ccc(-c4ccc(Cl)cc4)o3)cc2Cl)CC1`, the IC50 is 1.4 µg/mL (≈ 2.88 µM).
The figure for `Cc1ccc(C2CC(c3cc(Br)ccc3O)=NN2)cc1` (stereo not given) is 3.46 µg/mL (≈ 10.4 µM); for `COc1ccc(CNC(=O)c2sc3nc4c(c(C(F)(F)F)c3c2N)CC(C)CC4)cc1OC` (stereo not given) it is > 50 µg/mL (inactive).
Regarding `O=C(CCN1C(=O)C2C3C=CC(C3)C2C1=O)Oc1cccc2cccnc12` (stereo not given), the IC50 was 14.8 µg/mL (≈ 40.7 µM).
The figure for `Cc1ccc(N2C(=O)CC(Sc3ccccc3C(=O)Nc3ccccc3)C2=O)cc1` (stereo not given) is 4.92 µg/mL (≈ 11.8 µM); for `O=C(COc1ccc(Cl)cc1)Nc1ccc(N2CCN(C(=O)c3ccco3)CC2)c(Cl)c1` it is 1.67 µg/mL (≈ 3.52 µM).
